Assay [1] deals with Enterococcus faecalis. As to the kind of experiment: Antibacterial activity against Enterococcus faecalis MTCC 439 assessed as diameter of zone of inhibition at 500 ug/ml by agar disk diffusion method. As to conditions: read-out: DIZ. The format is functional.
The test system of assay [2] is Pseudomonas aeruginosa. As to the kind of experiment: Antibacterial activity against Pseudomonas aeruginosa MTCC 2453 assessed as diameter of zone of inhibition at 500 ug/ml by agar disk diffusion method. In kind it is functional. As to conditions: read-out: DIZ. (In general: Agar diffusion results depend on both activity and mobility in agar.)
The subject of assay [3] is Salmonella typhi. As to the kind of experiment: Antibacterial activity against Salmonella typhi assessed as diameter of zone of inhibition at 500 ug/ml by agar disk diffusion method. In kind it is functional, Salmonella enterica subsp. enterica serovar Typhi. As to conditions: Salmonella enterica, read-out: DIZ.
Assay [4] concerns Bacillus subtilis. As to the kind of experiment: Antibacterial activity against Bacillus subtilis MTCC 736 assessed as diameter of zone of inhibition at 500 ug/ml by agar disk diffusion method. The format is functional. As to conditions: read-out: DIZ.
Assay [5] has as its system Escherichia coli. As to the kind of experiment: Antibacterial activity against Escherichia coli MTCC 443 assessed as diameter of zone of inhibition at 500 ug/ml by agar disk diffusion method. In kind it is functional. As to conditions: read-out: DIZ.
Assay [6] relates to Staphylococcus aureus. As to the kind of experiment: Antibacterial activity against Staphylococcus aureus MTCC 902 assessed as diameter of zone of inhibition at 500 ug/ml by agar disk diffusion method. The format is functional. As to conditions: read-out: DIZ.
For assay [7], the system named is Escherichia coli. As to the kind of experiment: Antibacterial activity against Escherichia coli MTCC 443 assessed as inhibition of bacterial growth incubated overnight by serial dilution based spectrophotometer. In kind it is functional.
Assay [8] concerns Pseudomonas aeruginosa. As to the kind of experiment: Antibacterial activity against Pseudomonas aeruginosa MTCC 2453 assessed as inhibition of bacterial growth incubated overnight by serial dilution based spectrophotometer. The format is functional.
The subject of assay [9] is Escherichia coli. As to the kind of experiment: Ratio of MBC for antibacterial activity against Escherichia coli MTCC 443 to MIC for bactericidal activity against Escherichia coli MTCC 443. In kind it is functional.
Assay [10] has as its system Enterococcus faecalis. As to the kind of experiment: Antibacterial activity against Enterococcus faecalis MTCC 439 assessed as inhibition of bacterial growth incubated overnight by serial dilution based spectrophotometer. The format is functional.
Assay [11] deals with Salmonella typhi. As to the kind of experiment: Bactericidal activity against Salmonella typhi assessed as inhibition of bacterial growth incubated overnight. As to conditions: Salmonella enterica. In kind it is functional, Salmonella enterica subsp. enterica serovar Typhi.
For assay [12], the system named is Salmonella typhi. As to the kind of experiment: Ratio of MBC for antibacterial activity against Salmonella typhi to MIC for bactericidal activity against Salmonella typhi. In kind it is functional, Salmonella enterica subsp. enterica serovar Typhi.
Assay [13] relates to Staphylococcus aureus. As to the kind of experiment: Antibacterial activity against Staphylococcus aureus MTCC 902 assessed as inhibition of bacterial growth incubated overnight by serial dilution based spectrophotometer. The format is functional.
The test system of assay [14] is Salmonella typhi. As to the kind of experiment: Antibacterial activity against Salmonella typhi assessed as inhibition of bacterial growth incubated overnight by serial dilution based spectrophotometer. As to conditions: Salmonella enterica. In kind it is functional, Salmonella enterica subsp. enterica serovar Typhi.
Assay [15] has as its system Escherichia coli. As to the kind of experiment: Bactericidal activity against Escherichia coli MTCC 443 assessed as inhibition of bacterial growth incubated overnight. The format is functional.
The test system of assay [16] is Bacillus subtilis. As to the kind of experiment: Antibacterial activity against Bacillus subtilis MTCC 736 assessed as inhibition of bacterial growth incubated overnight by serial dilution based spectrophotometer. In kind it is functional.
Assay [17] relates to Staphylococcus aureus. As to the kind of experiment: Bactericidal activity against Staphylococcus aureus MTCC 902 assessed as inhibition of bacterial growth incubated overnight. The format is functional.
In assay [18] the test system is Pseudomonas aeruginosa. As to the kind of experiment: Bactericidal activity against Pseudomonas aeruginosa MTCC 2453 assessed as inhibition of bacterial growth incubated overnight. The format is functional.
For assay [19], the system named is Enterococcus faecalis. As to the kind of experiment: Ratio of MBC for antibacterial activity against Enterococcus faecalis MTCC 439 to MIC for bactericidal activity against Enterococcus faecalis MTCC 439. In kind it is functional.
Assay [20] relates to Enterococcus faecalis. As to the kind of experiment: Bactericidal activity against Enterococcus faecalis MTCC 439 assessed as inhibition of bacterial growth incubated overnight. In kind it is functional.
Assay [21] deals with Bacillus subtilis. As to the kind of experiment: Bactericidal activity against Bacillus subtilis MTCC 736 assessed as inhibition of bacterial growth incubated overnight. The format is functional.
The subject of assay [22] is Bacillus subtilis. As to the kind of experiment: Ratio of MBC for antibacterial activity against Bacillus subtilis MTCC 736 to MIC for bactericidal activity against Bacillus subtilis MTCC 736. The format is functional.

The structures appear in SMILES notation. Values after ≈ are worked out from the molar mass of the structure shown.

The MIC is the least concentration at which growth counts as inhibited. Broadly, the MBC is the smallest concentration meeting the test's criterion for killing.

Consider `Clc1ccc2c(NCC/N=C/c3ccccc3Cl)ccnc2c1`, for which the zone of inhibition at 500 µg/mL in the assay with Enterococcus faecalis [1] amounted to 9 mm; with Pseudomonas aeruginosa [2], 9 mm; in the assay on Salmonella typhi [3], 9 mm; with Bacillus subtilis [4] it was 8 mm; in the assay on Escherichia coli [5], 8 mm; in the assay on Staphylococcus aureus [6], 7 mm.
As for `COc1ccc2c(c1)/C(=N/CCNc1ccnc3cc(Cl)ccc13)C(=O)N2`, the zone of inhibition at 500 µg/mL was 10 mm in the assay on Enterococcus faecalis [1] and 11 mm in the assay with Pseudomonas aeruginosa [2].
Consider `Clc1ccc2c(NCC/N=C/c3c[nH]c4ccccc34)ccnc2c1`, for which the zone of inhibition at 500 µg/mL in the assay on Enterococcus faecalis [1] came out at 9 mm; in the assay on Pseudomonas aeruginosa [2], 7 mm; with Salmonella typhi [3], 9 mm; with Bacillus subtilis [4] it was 8 mm; in the assay with Escherichia coli [5], 10 mm; in the assay with Staphylococcus aureus [6], 8 mm.
Take `COc1ccc2c(c1)NC(=O)/C2=N\CCNc1ccnc2cc(Cl)ccc12`: the figures for the zone of inhibition at 500 µg/mL in the assay with Salmonella typhi [3] and in the assay on Escherichia coli [5] were 10 mm and 16 mm, respectively.
With `COc1cc(/C=N/CCNc2ccnc3cc(Cl)ccc23)ccc1O`, the zone of inhibition at 500 µg/mL in the assay on Enterococcus faecalis [1] stood at 7 mm; in the assay on Pseudomonas aeruginosa [2], 7 mm; in the assay on Salmonella typhi [3], 6 mm; in the assay with Escherichia coli [5], 9 mm; with Staphylococcus aureus [6], 6 mm.
In the case of `Cc1cc(C)c2c(c1)/C(=N/CCNc1ccnc3cc(Cl)ccc13)C(=O)N2`, the zone of inhibition at 500 µg/mL was 11 mm in the assay on Escherichia coli [5] and 6 mm in the assay with Staphylococcus aureus [6].
`Cc1ccc(/C=N/CCNc2ccnc3cc(Cl)ccc23)cc1`: the zone of inhibition at 500 µg/mL with Enterococcus faecalis [1] turned out to be 6 mm; in the assay on Pseudomonas aeruginosa [2], 8 mm; in the assay on Salmonella typhi [3] it was 6 mm; with Escherichia coli [5], 8 mm; in the assay on Staphylococcus aureus [6] it was 6 mm.
For `CC(C)c1ccc(/C=N/CCNc2ccnc3cc(Cl)ccc23)cc1`, the MIC with Escherichia coli [7] is 256 mg/L (≈ 728 µM); in the assay with Pseudomonas aeruginosa [8], 256 mg/L (≈ 728 µM); with Enterococcus faecalis [10], over 512 mg/L; in the assay on Staphylococcus aureus [13], 512 mg/L (≈ 1460 µM); in the assay on Salmonella typhi [14] it was 256 mg/L (≈ 728 µM); with Bacillus subtilis [16], over 512 mg/L. The zone of inhibition at 500 µg/mL turned out to be 7 mm in the assay on Enterococcus faecalis [1]; 12 mm in the assay with Pseudomonas aeruginosa [2]; 10 mm with Salmonella typhi [3]; 8 mm in the assay on Bacillus subtilis [4]; 10 mm in the assay with Escherichia coli [5]; 9 mm with Staphylococcus aureus [6]. The Ratio in the assay on Escherichia coli [9] and in the assay with Salmonella typhi [12] was 1 each time. The MBC was 256 mg/L (≈ 728 µM) in the assay on Salmonella typhi [11], 256 mg/L (≈ 728 µM) in the assay on Escherichia coli [15], over 512 mg/L with Staphylococcus aureus [17] and over 512 mg/L in the assay with Pseudomonas aeruginosa [18].
For `Clc1ccc2c(NCC/N=C/c3ccccc3)ccnc2c1`, the zone of inhibition at 500 µg/mL turned out to be 8 mm with Enterococcus faecalis [1]; 8 mm in the assay on Pseudomonas aeruginosa [2]; 6 mm in the assay on Salmonella typhi [3]; 7 mm in the assay on Bacillus subtilis [4]; 10 mm in the assay with Escherichia coli [5]; 8 mm with Staphylococcus aureus [6].
For `O=C1Nc2c(cccc2[N+](=O)[O-])/C1=N/CCNc1ccnc2cc(Cl)ccc12`, the values for the zone of inhibition at 500 µg/mL in the assay on Bacillus subtilis [4] and in the assay with Staphylococcus aureus [6] were 11 mm and 8 mm, respectively.
As for `Clc1ccc2c(NCC/N=C/c3ccc[nH]3)ccnc2c1`, the MIC with Escherichia coli [7] was 256 mg/L (≈ 857 µM); in the assay with Pseudomonas aeruginosa [8], over 512 mg/L; with Enterococcus faecalis [10] it was 512 mg/L (≈ 1710 µM); in the assay on Staphylococcus aureus [13], 512 mg/L (≈ 1710 µM); in the assay on Salmonella typhi [14], over 512 mg/L; with Bacillus subtilis [16] it was 512 mg/L (≈ 1710 µM). The zone of inhibition at 500 µg/mL is 8 mm in the assay with Enterococcus faecalis [1]; 7 mm in the assay with Pseudomonas aeruginosa [2]; 9 mm in the assay with Salmonella typhi [3]; 9 mm in the assay with Bacillus subtilis [4]; 9 mm with Escherichia coli [5]; 10 mm with Staphylococcus aureus [6]. Moreover, the Ratio in the assay with Escherichia coli [9] amounted to 2; in the assay on Enterococcus faecalis [19], 1; with Bacillus subtilis [22], 1. In addition, the MBC in the assay on Enterococcus faecalis [20] is 512 mg/L (≈ 1710 µM); in the assay with Bacillus subtilis [21], 512 mg/L (≈ 1710 µM); in the assay with Escherichia coli [15] it was 512 mg/L (≈ 1710 µM); in the assay with Staphylococcus aureus [17], over 512 mg/L.
As to `COc1ccc(/C=N/CCNc2ccnc3cc(Cl)ccc23)cc1`, the zone of inhibition at 500 µg/mL with Enterococcus faecalis [1] was 8 mm; in the assay on Pseudomonas aeruginosa [2] it was 8 mm; in the assay with Salmonella typhi [3], 9 mm; with Bacillus subtilis [4], 6 mm; in the assay with Escherichia coli [5], 9 mm; in the assay on Staphylococcus aureus [6], 8 mm.

The values above are taken from ChEMBL document CHEMBL6078713, “Synthesis and mechanistic studies of 4-aminoquinoline-Isatin molecular hybrids and Schiff's bases as promising antimicrobial agents” (Eur J Med Chem, 2025).
